Assay [1] addresses T1, K-ΔKv1.3 (N-terminally truncated human Kv1.3 tagged with mKate2) (Homo sapiens, UniProt P22001). Kind of assay: Confocal imaging of A-HgTx binding and displacement, K-ΔKv1.3 in HEK293 cells. Also noted: expressed in transfected cells; host or cells: HEK293 (transient transfection with pmKate2-KCNA3-del). On the procedure: (§1) Figure 4 Confocal imaging of A-HgTx interactions (green) with mKate2-tagged Kv1.3 channels (red) transiently expressed in HEK293 cells. (A–D) Binding (A,B) of A-HgTx (2 nM) to Kv1.3-K and its displacement (C,D) by HgTx1 (40 nM). (E–H) Binding (E,F) of A-HgTx (2 nM) to K-Kv1.3 and its displacement (G,H) by HgTx1 (40 nM). (I–L) Binding (I,J) of A-HgTx (2 nM) to K-ΔKv1.3 and its displacement (K,L) by HgTx1 (40 nM). (M,N) Control measurement of the binding of A-HgTx (2 nM) to intact (no transfection) HEK293 cells. (O,P) Control measurement of the background signal in the wavelength range corresponding to the A-HgTx emission (O) from HEK293 cells expressing K-ΔKv1.3 (without addition of A-HgTx). The scale bar is equal to 20 μm. (A,E,I,M,C,G,K,O) Distribution of A-HgTx. (B,F,J,N,D,H,L,P) Distribution of mKate2-tagged Kv1.3 channels.
(§2) KCNA3 gene encoding human Kv1.3 channel (hKv1.3, Accession number NP_002223.3) was a generous gift from Dr. A. Vassilevski. […]
(§3) Fluorescence of mKate2-fused hKv1.3 was excited at the 561 nm wavelength and recorded in the 650–700 nm range. Fluorescence of A-HgTx was excited at the 488 nm wavelength and recorded in the 495–535 nm range. Distributions of A-HgTx and mKate2 fluorescence in cells were imaged using sequential scanning to avoid interference of intrinsic cellular fluorescence excited at the 488 nm with the mKate2 fluorescence.

The test system of assay [2] is intact HEK293 cells that do not express mKate2-tagged Kv1.3. Kind of assay: Control: A-HgTx binding to intact HEK293 cells. As to conditions: 2 nM A-HgTx; no transfection; confocal imaging. The method, then:
as §1, with “channels. […]” for “channels.”
as §3

Assay [3] concerns mKate2-tagged Kv1.3 channels. Kind of assay: A-HgTx wash-off and effect on channel distribution, mKate2-tagged Kv1.3 in HEK293 cells. It counts as binding, human. The method, then: as §1
In A-HgTx binding experiments, cells were incubated with A-HgTx (0.15–4 nM) for 30 min (37 °C, 5% CO2) in the complete medium. […]
as §3

Assay [4] addresses T1, K-ΔKv1.3 (N-terminally truncated human Kv1.3 tagged with mKate2). Kind of assay: Whole-cell patch-clamp, K-ΔKv1.3 expressed in Neuro-2A cells. Details: expressed in transfected cells. It counts as cell-based. Conditions: N2a, +50 mV, 20–25 °C, pH 7.4, mean ± SEM. In general terms: In patch-clamp work, channel activity is measured electrically.
Experimental: The K-ΔKv1.3 channel and A-HgTx were characterized by a whole-cell patch-clamp technique. Taking into account that “the kinetic properties of the homomeric Kv channels are largely consistent across host cell lines” [42], we studied K-ΔKv1.3 presented at the membrane of mouse Neuro-2A neuroblastoma cells, which are routinely used in our electrophysiological experiments.
The ion currents were analyzed in the whole-cell configuration by depolarizing steps from −70 to 70 mV in 20 mV increments from a holding potential of −40 mV.
Test pulses having duration of 200 ms were applied stepwise with an interval of 20 s with a step of 20 mV from −70 to +70 mV then returning to a holding potential. […] Data were averaged (mean ± SEM) over ten (E) and twelve (F) cells.
(A,B) Representative series of currents before (A) and after addition of 2 nM A-HgTx (B). […]
K-ΔKv1.3-channel ion currents were recorded by the patch-clamp technique using an EPC-10 amplifier (HEKA Elektronik, Germany) in a standard whole-cell configuration. […]
Briefly, in 24–48 h after transfection, cover glasses with attached Neuro2a cells were placed in a chamber with an extracellular solution (mM): 140 NaCl, 2.8 KCl, 2 MgCl2, 2 CaCl2, 10 HEPES and 10 glucose (pH 7.4) and perfused continuously. Selection of cells for the measurements was guided by membrane fluorescence of K-ΔKv1.3. […]
In assay [5] the target is T2, K-Kv1.3 (human Kv1.3 N-terminally tagged with mKate2) (Homo sapiens, UniProt P22001).
T2 construct: membrane expression of the full-length human Kv1.3 was poor in X. oocytes, deletion of N-terminal M1-D52 residues boosted; expressed in transfected cells; host or cells: HEK293 (transient transfection with pmKate2-KCNA3)
T2 sequence (P22001 whole entry, the tested form may be a part): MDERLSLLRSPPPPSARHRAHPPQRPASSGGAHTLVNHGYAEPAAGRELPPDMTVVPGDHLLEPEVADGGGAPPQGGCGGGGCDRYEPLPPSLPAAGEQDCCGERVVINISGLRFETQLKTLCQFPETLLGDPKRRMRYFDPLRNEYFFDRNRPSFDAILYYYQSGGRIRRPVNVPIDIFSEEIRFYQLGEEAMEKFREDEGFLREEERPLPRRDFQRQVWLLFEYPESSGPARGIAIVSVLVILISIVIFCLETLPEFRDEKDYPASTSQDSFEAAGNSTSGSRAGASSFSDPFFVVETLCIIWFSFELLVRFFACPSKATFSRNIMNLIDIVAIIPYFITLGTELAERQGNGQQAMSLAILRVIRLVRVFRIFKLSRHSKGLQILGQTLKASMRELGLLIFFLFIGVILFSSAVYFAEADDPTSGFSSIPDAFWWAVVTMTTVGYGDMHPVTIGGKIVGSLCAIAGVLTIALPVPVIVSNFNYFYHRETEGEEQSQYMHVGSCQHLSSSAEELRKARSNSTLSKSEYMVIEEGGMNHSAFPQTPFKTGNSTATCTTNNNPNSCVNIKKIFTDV
Kind of assay: Confocal imaging of A-HgTx binding and displacement, K-Kv1.3 in HEK293 cells. On the procedure: as §1, §2, §3

The test system of assay [6] is Kv1.3-K (human Kv1.3 C-terminally tagged with mKate2). Kind of assay: Confocal imaging of A-HgTx binding and displacement, Kv1.3-K in HEK293 cells. On the procedure:
as §1, with “channels. […]” for “channels.”
as §3

Assay [7] has as its target T1, K-ΔKv1.3 (N-terminally truncated human Kv1.3 tagged with mKate2). Kind of assay: Confocal imaging of A-HgTx binding and displacement, K-ΔKv1.3 in Neuro-2A cells. As to conditions: 2 nM A-HgTx. Details: expressed in transfected cells; host or cells: HEK293 (transient transfection with pmKate2-KCNA3-del). The method, then: Mouse Neuro-2A neuroblastoma cells were purchased from the Russian collection of cell cultures (Institute of Cytology, Saint Petersburg, Russia). Cells were cultured in DMEM (Paneco, Russia) supplemented with 10% fetal bovine serum (PAA Laboratories, Austria) and penicillin–streptomycin 100 U/mL. Cells were subcultured twice a week. Cells were plated at a density of 3×10^4 cells per well on cover glasses coated with poly-D-lysine and 24 h latter subjected to the transfection with plasmid pmKate2-KCNA3-del as described above.
Figure S5. Confocal imaging of A-HgTx interactions with K-ΔKv1.3channels transiently expressed in Neuro-2A cells. (A, B) Distri-
(20 nM) from the complexes with K-ΔKv1.3 at the membrane of cells. Scale bar is 20 µm. Green and red colors – fluorescence of A-
HgTx and K-ΔKv1.3, respectively.
Figure S6. Concentration dependence of A-HgTx binding to K-Kv1.3 on a cell membrane that was measured as the dependence of
Rav on the concentration L of A-HgTx added to HEK293 cells transiently transfected with K-Kv1.3.
(also on this page, place not known: Neuro -2A K -ΔKv1.3. A -HgTx K -ΔKv1.3 0.0 0.5 1.0 1.5 2.0 0.0 0.5 1.0 1.5 L, nM Rav) […]

Assay [8] shares this target. Kind of assay: Fluorescent competitive binding assay (FCBA), displacement of A-HgTx from K-ΔKv1.3. Also noted: expressed in transfected cells; host or cells: HEK293 (transient transfection with pmKate2-KCNA3-del). Conditions: living HEK293 cells; 2 nM A-HgTx; result in words.
Text: To quantitatively characterize formation of complexes between A-HgTx and K-ΔKv1.3 on cell membranes, the confocal images of A-HgTx bound at the membrane of the K-ΔKv1.3 presenting cells were subjected to the treatment procedure as follows. Regions of interest (ROIs) corresponding to the plasma membranes stained with K-ΔKv1.3 were selected. Using a set of these ROIs and a threshold procedure (to null a background signal from pixels without K-ΔKv1.3 signal), the binary (0;1) mask that describes membranous localization of K-ΔKv1.3 was created. The images of K-ΔKv1.3 and A-HgTx distribution were multiplied by the corresponding mask. Next, average intensities of fluorescence of K-ΔKv1.3 (Ici) and A-HgTx (Ili) were calculated for each ROI (i.e., for each i-cell), and a ratio Ri was calculated as follows. Ri = (Ili − Ilb)/(Ici − Icb) (1) where Ilb and Icb are intensities of background signals in the fluorescent images of A-HgTx and Kv1.3 channels, respectively. Calculating Ri (i.e., normalizing A-HgTx intensity to that of K-ΔKv1.3), a correction was introduced for variations in a level of K-ΔKv1.3 expression on the membrane of particular cells. Ri values of 15–20 cells were averaged to obtain the Rav value, and a standard deviation was calculated.
Concentration of A-HgTx was 2 nM. Concentration of pore blockers C varied as indicated in the graph.
When Kd of A-HgTx and IC50 for the studied compound are known, the apparent dissociation constant Kap of complexes between the compound and channel can be calculated using the Cheng-Prusoff equation [50]:Kap = IC50/(1 + L/Kd)(4) where L is the concentration of A-HgTx in the competitive binding experiment.
In A-HgTx binding experiments, cells were incubated with A-HgTx (0.15–4 nM) for 30 min (37 °C, 5% CO2) in the complete medium. In competitive binding experiments, cells were incubated with A-HgTx (2 nM) and selected pore blocker at variable concentrations (0.5–100 nM for recombinant peptides and 1–20 mM for TEA) for 30 min (37 °C, 5% CO2) in the complete medium.
Experiments with HEK293 cells were performed with a laser scanning confocal microscope Leica-SP2 (Leica Microsystems GmbH, Wetzlar, Germany). The water-immersion 63×/1.2 NA HCX PL APO objective was used.
Each experimental point in the curves describing interaction A-HgTx with mKate2-tagged Kv1.3 channels is an average over 15–25 treated images of cells. […]
Where [9] appears, read: 2 nM A-HgTx, living HEK293 cells.
[10] abbreviates: HgTx1 40 nM vs A-HgTx 2 nM, HEK293 cells.

Results on two molecules are retold here after paper PMC9780825, “Combining mKate2-Kv1.3 Channel and Atto488-Hongotoxin for the Studies of Peptide Pore Blockers on Living Eukaryotic Cells” (Toxins, 2022).

Entries after “also recorded” stand apart in the source; their conditions may differ. Residues, ends and D or L forms follow the SMILES beside them.

T1 sequence (P22001 53-575 limits assumed, stated change not applied): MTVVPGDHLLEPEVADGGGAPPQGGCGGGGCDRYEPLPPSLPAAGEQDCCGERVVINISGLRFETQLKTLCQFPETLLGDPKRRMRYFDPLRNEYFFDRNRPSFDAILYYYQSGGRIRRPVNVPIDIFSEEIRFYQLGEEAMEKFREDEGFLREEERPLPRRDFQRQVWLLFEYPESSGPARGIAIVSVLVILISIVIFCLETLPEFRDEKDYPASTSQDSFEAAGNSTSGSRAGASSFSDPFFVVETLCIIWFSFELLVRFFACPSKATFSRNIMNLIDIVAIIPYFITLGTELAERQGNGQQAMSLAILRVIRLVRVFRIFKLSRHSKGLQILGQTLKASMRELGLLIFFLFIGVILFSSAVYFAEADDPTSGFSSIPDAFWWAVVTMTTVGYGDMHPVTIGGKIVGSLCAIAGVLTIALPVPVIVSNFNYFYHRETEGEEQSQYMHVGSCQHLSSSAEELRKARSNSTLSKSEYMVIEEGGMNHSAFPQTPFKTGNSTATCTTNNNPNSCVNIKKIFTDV

The inhibition is the relative decrease from the control value, in per cent. `CC[C@H](C)[C@@H]1NC(=O)CNC(=O)[C@H](Cc2ccccc2)NC(=O)[C@H](CCC(N)=O)NC(=O)[C@H](C)NC(=O)[C@H](CCCCN)NC(=O)[C@@H]2CSSC[C@@H](C(=O)N[C@@H](Cc3ccc(O)cc3)C(=O)N3CCC[C@H]3C(=O)N[C@@H](Cc3c[nH]cn3)C(=O)O)NC(=O)[C@H](CCCCN)NC(=O)[C@@H]3CSSC[C@H](NC(=O)[C@H](CCC(N)=O)NC(=O)[C@H](CCCCN)NC(=O)[C@@H]4CCCN4C(=O)[C@H](CO)NC(=O)[C@H]([C@@H](C)O)NC(=O)[C@@H](NC(=O)[C@H](CCCCN)NC(=O)[C@@H](NC(=O)[C@H](CC(=O)O)NC(=O)[C@@H](NC(=O)[C@@H](NC(=O)[C@@H](NC(=O)CCCN(C)C(=O)c4ccccc4-c4c5ccc(=N)c(S(=O)(=O)O)c-5oc5c(S(=O)(=O)O)c(N)ccc45)[C@@H](C)O)C(C)C)[C@@H](C)CC)C(C)C)CSSC[C@H](NC(=O)[C@H](CCCCN)NC(=O)[C@H](C)NC(=O)CNC(=O)[C@H](C)NC(=O)[C@H](CCCNC(=N)N)NC1=O)C(=O)N[C@@H](CCSC)C(=O)N[C@@H](CC(N)=O)C(=O)NCC(=O)N[C@@H](CCCCN)C(=O)N3)C(=O)N[C@@H](CC(C)C)C(=O)N1CCC[C@H]1C(=O)N1CCC[C@H]1C(=O)N2` [A-HgTx] (HELM PEPTIDE1{[N=c1ccc2c(-c3ccccc3C(=O)[*:2])c3ccc(N)c(S(=O)(=O)O)c3oc-2c1S(=O)(=O)O].[CN(CCCC(=O)[*:2])[*:1]].T.V.I.D.V.K.C.T.S.P.K.Q.C.L.P.P.C.K.A.Q.F.G.I.R.A.G.A.K.C.M.N.G.K.C.K.C.Y.P.H}$PEPTIDE1,PEPTIDE1,9:R3-31:R3|PEPTIDE1,PEPTIDE1,15:R3-36:R3|PEPTIDE1,PEPTIDE1,19:R3-38:R3$$$V2.0; C-terminus assumed): in assay [1] (setting [9]), the “binding of A-HgTx to K-ΔKv1.3” value is “bind A-HgTx”. Further, in assay [2], the “binding of A-HgTx at the membrane of intact HEK293 cells (non-specific binding)” value is “negligible non-specific binding; also recorded: No binding of A-HgTx was observed”. Also, the “effect of A-HgTx binding on membrane distribution of the Kv1.3 channels” value in assay [3] (nano-molar A-HgTx, HEK293 cells, confocal imaging) is given as “does not lead to noticeable changes”. Further, the “dissociation of A-HgTx from the cell membrane on washing” value in assay [3] (washing HEK293 cells with fresh medium, data not shown) is recorded as “rapid (in a few minutes) dissociation”. Also, the inhibition at 0.002 µM in assay [4] (2 nM A-HgTx, n = 10, read-out: inhibition of K-ΔKv1.3 currents by A-HgTx) stood at 42 ± 6%. In addition, in assay [4] (10 nM A-HgTx, n = 3, read-out: inhibition of K-ΔKv1.3 currents by A-HgTx), the inhibition at 0.01 µM is 83 ± 3%. For the same molecule, the “binding of A-HgTx to K-Kv1.3” value in assay [5] (setting [9]) is given as “bind A-HgTx”. In addition, the “binding of A-HgTx to Kv1.3-K” value in assay [6] (setting [9]) is recorded as “bind A-HgTx”. The “binding of A-HgTx at the membrane of K-ΔKv1.3 expressing Neuro-2A cells” value in assay [7] is “bound at the membrane of cells expressing K-ΔKv1.3”.

`CC[C@H](C)[C@@H]1NC(=O)CNC(=O)[C@H](Cc2ccccc2)NC(=O)[C@H](CCC(N)=O)NC(=O)[C@H](C)NC(=O)[C@H](CCCCN)NC(=O)[C@@H]2CSSC[C@@H](C(=O)N[C@@H](Cc3ccc(O)cc3)C(=O)N3CCC[C@H]3C(=O)N[C@@H](Cc3c[nH]cn3)C(=O)O)NC(=O)[C@H](CCCCN)NC(=O)[C@@H]3CSSC[C@H](NC(=O)[C@H](CCC(N)=O)NC(=O)[C@H](CCCCN)NC(=O)[C@@H]4CCCN4C(=O)[C@H](CO)NC(=O)[C@H]([C@@H](C)O)NC(=O)[C@@H](NC(=O)[C@H](CCCCN)NC(=O)[C@@H](NC(=O)[C@H](CC(=O)O)NC(=O)[C@@H](NC(=O)[C@@H](NC(=O)[C@@H](N)[C@@H](C)O)C(C)C)[C@@H](C)CC)C(C)C)CSSC[C@H](NC(=O)[C@H](CCCCN)NC(=O)[C@H](C)NC(=O)CNC(=O)[C@H](C)NC(=O)[C@H](CCCNC(=N)N)NC1=O)C(=O)N[C@@H](CCSC)C(=O)N[C@@H](CC(N)=O)C(=O)NCC(=O)N[C@@H](CCCCN)C(=O)N3)C(=O)N[C@@H](CC(C)C)C(=O)N1CCC[C@H]1C(=O)N1CCC[C@H]1C(=O)N2` [HgTx1, hongotoxin 1, reference compound] (HELM PEPTIDE1{T.V.I.D.V.K.C.T.S.P.K.Q.C.L.P.P.C.K.A.Q.F.G.I.R.A.G.A.K.C.M.N.G.K.C.K.C.Y.P.H}$PEPTIDE1,PEPTIDE1,7:R3-29:R3|PEPTIDE1,PEPTIDE1,13:R3-34:R3|PEPTIDE1,PEPTIDE1,17:R3-36:R3$$$V2.0; N-terminus and C-terminus assumed): the “displacement of A-HgTx from K-ΔKv1.3” value in assay [1] (setting [10]) is “displaces bound A-HgTx”. Further, in assay [8], the “displacement of A-HgTx from the complexes with K-ΔKv1.3” value is reported as “displaced from the complexes with K-ΔKv1.3”. In addition, the “displacement of A-HgTx from K-Kv1.3” value in assay [5] (setting [10]) is listed as “displaces bound A-HgTx”. Moreover, in assay [6] (setting [10]), the “displacement of A-HgTx from Kv1.3-K” value is “displaces bound A-HgTx”.
